Laboratory results as given in PubChem BioAssay (NCI).
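Cells were grown in 96-well plates and exposed to each compound for 48 hours at five concentrations; endpoints were interpolated linearly between bracketing concentrations, or set to the highest concentration if not reached. Abbreviation: GI50, concentration required for 50% inhibition of growth. TGI: concentration producing complete growth inhibition.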

Assays:
Test in all cases: DTP human tumour cell line panel, 48 h
T-47D breast = system: T-47D breast
RPMI-8226 leukemia = system: RPMI-8226 leukemia
SNB-19 CNS = system: SNB-19 CNS
SF-295 CNS = system: SF-295 CNS
DU-145 prostate = system: DU-145 prostate
SW-620 colon = system: SW-620 colon
MDA-MB-231 breast = system: MDA-MB-231 breast
OVCAR-5 ovarian = system: OVCAR-5 ovarian
SK-MEL-28 melanoma = system: SK-MEL-28 melanoma
ACHN renal = system: ACHN renal

Structure (SMILES) | GI50 (T-47D breast) | TGI (T-47D breast) | GI50 (RPMI-8226 leukemia) | TGI (RPMI-8226 leukemia) | GI50 (SNB-19 CNS) | TGI (SNB-19 CNS) | GI50 (SF-295 CNS) | TGI (SF-295 CNS) | GI50 (DU-145 prostate) | TGI (DU-145 prostate) | GI50 (SW-620 colon) | TGI (SW-620 colon) | GI50 (MDA-MB-231 breast) | TGI (MDA-MB-231 breast) | GI50 (OVCAR-5 ovarian) | TGI (OVCAR-5 ovarian) | GI50 (SK-MEL-28 melanoma) | TGI (SK-MEL-28 melanoma) | GI50 (ACHN renal) | TGI (ACHN renal)
COc1ccc(Cl)cc1Nc1nc(C(F)(F)F)ccc1C(=O)NN | 5.06 µM | > 100 µM | 1.91 µM | 13.3 µM | 8.93 µM | > 100 µM | 1.97 µM | 11.7 µM | 2.42 µM | > 20.2 µM | 27.9 µM | > 100 µM | 4.58 µM | > 100 µM | 3.81 µM | > 100 µM | 3.38 µM | > 100 µM | 2.53 µM | > 100 µM
CC[C@H](C)[C@H](NC(=O)c1cnccn1)C(=O)N(C)[C@H](C[C@@H](OC(C)=O)c1nc(C(=O)N[C@@H](Cc2ccccc2)C[C@H](C)C(=O)OC)cs1)C(C)C | 2.48 µM | > 33.3 µM | 1.07 µM | > 33.3 µM | 1.42 µM | > 33.3 µM | 1.03 µM | > 33.3 µM | 1.23 µM | > 33.3 µM | 1.28 µM | > 33.3 µM | 1.39 µM | 19.6 µM | 3.71 µM | > 33.3 µM | 2.37 µM | > 33.3 µM | 2.69 µM | > 33.3 µM
NS(=O)(=O)c1ccc(N2Cc3cc(Cl)ccc3OC3=C2C(=O)N(CC2CCCCC2)C3=O)cc1 | 0.365 µM | 1.86 µM | 0.227 µM | 0.575 µM | 1.6 µM | 3.44 µM | 1.81 µM | 4.03 µM | 1.06 µM | 2.25 µM | 0.202 µM | 0.445 µM | 1.11 µM | 2.6 µM | 1.76 µM | 3.54 µM | 1.16 µM | 2.57 µM | 0.286 µM | 0.883 µM
CC1=C(C(=O)NC2CCCCC2)CC(C(=O)NC2CCCCC2)=C(C)N1 |  | > 100 µM |  | > 100 µM |  | > 100 µM |  | > 100 µM |  | > 100 µM |  | > 100 µM |  | > 100 µM |  | > 100 µM |  | > 100 µM |  | > 100 µM
Cc1cccc(NC(=O)c2sc3nc4c(cc3c2N)CCCC4)c1C | 0.505 µM | > 100 µM | 0.354 µM | > 100 µM | 0.508 µM | > 100 µM | 0.516 µM | > 100 µM | 0.454 µM | > 100 µM | 0.369 µM | > 100 µM | 1.6 µM | > 100 µM | 1.79 µM | > 100 µM | > 48.4 µM | > 100 µM | 0.68 µM | > 100 µM
COC(=O)c1ccc2c(c1)C(NC(C)=O)CCc1cc(OC)c(OC)c(OC)c1-2 (centres undefined) |  | > 100 µM |  | > 100 µM |  | > 86.9 µM |  | 3.03 µM |  | 0.0865 µM |  | > 100 µM |  | > 100 µM |  | > 95.9 µM |  | > 100 µM |  | > 100 µM
S=C(N/N=C/c1cc(Cl)cc(Cl)c1)NC12CC3CC(CC(C3)C1)C2 | 6.94 µM | > 100 µM | > 100 µM | > 100 µM | 5.99 µM | > 100 µM | 3.92 µM | > 24.5 µM | 12.8 µM | > 100 µM | 13.4 µM | > 100 µM | 3.99 µM | > 100 µM | 13.6 µM | > 100 µM | 14.4 µM | > 100 µM | 2.29 µM | 8.05 µM
C/C(=N\O)c1ccc(Nc2cc(-n3nnc4ccccc43)nc3ccccc23)cc1 | 8.23 µM | > 34.7 µM | 3.19 µM | 12.8 µM | 19.9 µM | > 90.7 µM | 10.3 µM | > 100 µM | 7.7 µM | 30 µM | 11.6 µM | 39.4 µM | 2.53 µM | 9.37 µM | 8.49 µM | > 37.3 µM | 16.9 µM | > 69 µM | 5.82 µM | 21.8 µM
CC(O)CNC1=CC(=O)C(=O)c2ccccc21 (centres undefined) |  | 45.2 µM |  | 48 µM |  | 32 µM |  | 27 µM |  | 29.1 µM |  | 40.1 µM |  | 73.6 µM |  | 35.6 µM |  | 35 µM |  | 35.6 µM
CS(=O)(=O)c1ccc(Cl)c([N+](=O)[O-])c1 | 13.5 µM | 35.1 µM | 25.5 µM | 70 µM | 12.5 µM | 25.5 µM | 18.5 µM | 37.9 µM | 13.3 µM | 26.4 µM | 12.8 µM | 28.6 µM | 16.1 µM | 31.1 µM | 20.1 µM | 36.1 µM | 17.9 µM | 32 µM | 16 µM | 29.7 µM
CCN(CC)c1ccc(NC(=S)NN(C)C)cc1 |  | > 10 µM |  | > 10 µM |  | > 10 µM |  | > 10 µM |  | > 10 µM |  | > 10 µM |  | > 10 µM |  |  |  | > 10 µM |  | > 10 µM
